Measurements: US8058243B2, “Method for treating a brain cancer with ifenprodil” (HSC Research and Development Limited Partnership, priority 2006, dated 2011)
Where a name gives a salt, the structure may show the parent alone. Read-outs that look alike come from different tables or passages of the source.

Tested on: murine neural precursor cells (neurosphere cultures)
Experiment: HTS of LOPAC library against secondary neurosphere cultures, MTT proliferation assay at 3 μM, day 7 (z score, P value)
Assay type: cell-based, mouse
[1] = yes/no: significantly inhibited neurosphere proliferation in the primary screen
[2] = LOPAC library screen, 3 μM, MTT, secondary neurosphere cultures, day 7
[3] = LOPAC screen, neurosphere MTT proliferation, 3 μM, day 7
[4] = yes/no: significantly inhibited neurosphere proliferation (P<0.01) in primary screen
[5] = LOPAC library screen, 3 μM, MTT, neurosphere cultures
[6] = primary LOPAC screen, 3 μM, MTT, neurosphere proliferation
[7] = LOPAC primary screen, neurosphere MTT proliferation, 3 μM, day 7
[8] = yes/no: significantly inhibited neurosphere proliferation (P<0.01) in the primary screen

In the case of `O=C1O/C(=C/Br)CCC1c1cccc2ccccc12` (stereo not shown) [Bromoenol lactone], the “Z Score” value (168 h, 3 µM) was 0.2484, the Z score (168 h, 3 µM) was 0.248 and the Activity [1] was “no”.

In the case of `CCCC1O[C@@H]2C[C@H]3[C@@H]4CCC5=CC(=O)C=C[C@]5(C)[C@H]4[C@@H](O)C[C@]3(C)[C@]2(C(=O)CO)O1` (stereo partly shown) [Budesonide], the “Z Score” value [2] was −1.994 and the Z score [3] was −1.994.

With `CCCCNc1cc(C(=O)O)cc(S(N)(=O)=O)c1Oc1ccccc1` [Bumetanide] the “Z Score” value [2] was −2.182, the Z score [3] was −2.182 and the Activity [4] was “no”.

For `CC(NC(C)(C)C)C(=O)c1cccc(Cl)c1` (stereo not shown) [Bupropion hydrochloride], the “Z Score” value [5] was 0.2671, the Z score [3] was 0.267 and the Activity [4] was “no”.

In the case of `O=C1CC2(CCCC2)CC(=O)N1CCCCN1CCN(c2ncccn2)CC1` [Buspirone hydrochloride], the Activity was “no”, the “Z Score” value (168 h, 3 µM) was −1.775 and the Z score (168 h, 3 µM) was −1.775.

In the case of `CCCN(CCC)C(=O)Cc1c(-c2ccc(Cl)cc2)nc2c(Cl)cc(Cl)cn12` [CB34], the “Z Score” value was −1.081, the Z score [3] was −1.081 and the Activity [4] was “no”.

For `NC(=O)c1cc(N2CC2)c([N+](=O)[O-])cc1[N+](=O)[O-]` [CB 1954], the “Z Score” value (LOPAC library screen at 3 μM, secondary neurosphere cultures, MTT) was −1.07, the Z score [6] was −1.070 and the Activity [1] was “no”.

In the case of `CC(C)(CO)Cc1cc(C(C)(C)C)c(O)c(C(C)(C)C)c1` [CGP-7930], the “Z Score” value was −0.411, the Z score [6] was −0.411 and the Activity [1] was “no”.

With `CC(C)(C=O)Cc1cc(C(C)(C)C)c(O)c(C(C)(C)C)c1` [CGP-13501] the “Z Score” value was −1.096, the Z score [6] was −1.096 and the Activity [1] was “no”.

`CCn1cnc2c(Nc3cccc(Cl)c3)nc(N[C@@H]3CCCC[C@@H]3N)nc21.Cl` [CGP-74514A hydrochloride] was tested, and the “Z Score” value was −9.117, the Z score [7] was −9.117 and the Activity [8] was “yes”.

`Nc1nc2ccc(Cl)cc2c2nc(-c3ccco3)nn12` [CGS-15943] was tested, and the “Z Score” value was 0.1783 and the Z score was 0.178.

In the case of `CCNC(=O)[C@H]1O[C@@H](n2cnc3c(N)nc(NCCc4ccc(CCC(=O)O)cc4)nc32)[C@H](O)[C@@H]1O` [CGS-21680 hydrochloride], the “Z Score” value (168 h, 3 µM) was −1.225, the Z score (168 h, 3 µM) was −1.225 and the Activity [8] was “no”.

For `C[C@H](Cc1ccc2c(c1)OC(C(=O)[O-])(C(=O)[O-])O2)NC[C@H](O)c1cccc(Cl)c1.[Na+].[Na+]` [CL 316,243], the Z score [3] was 0.621 and the Activity [4] was “no”.

With `C[C@H](Cc1ccc2c(c1)OC(C(=O)[O-])(C(=O)[O-])O2)NC[C@H](O)c1cccc(Cl)c1.[Na+].[Na+]` [CL 316, 243] the “Z Score” value was 0.6212.

With `N#Cc1cc2nc([O-])c([O-])nc2cc1[N+](=O)[O-].[Na+].[Na+]` [CNQX disodium] the “Z Score” value [2] was −1.904, the Z score [3] was −1.904 and the Activity [4] was “no”.

In the case of `CCc1cccc(N(C)C(N)=Nc2cccc3ccccc23)c1` [CNS-1102], the Activity was “yes”, the “Z Score” value [2] was −3.782 and the Z score [7] was −3.782.

For `CCCCCCC(C)(C)c1ccc([C@@H]2C[C@H](O)CC[C@H]2CCCO)c(O)c1` [CP55940], the “Z Score” value was 1.396, the Z score [6] was 1.396 and the Activity [1] was “no”.

With `CC1(C)CCC(NC(=O)[C@@H](N)CCC(=O)O)CC1` [CR 2249] the “Z Score” value (168 h, 3 µM) was −1.002, the Z score (168 h, 3 µM) was −1.002 and the Activity (yes = significantly inhibited neurosphere proliferation (P<0.01) in the primary screen) was “no”.

`Cc1cc(C)c(NC(=O)C[C@H](CC(=O)O)c2cccc3ccccc23)c(C(=O)N2CCC3(CCCC3)CC2)c1` [CR 2945] was tested, and the “Z Score” value (168 h, 3 µM) was 0.5451, the Z score (168 h, 3 µM) was 0.545 and the Activity [4] was “no”.

With `CCCCCCCCCCCCCCCCCCNC(=O)OCC(COP(=O)([O-])OCC[n+]1ccsc1)OC` (stereo not shown) [CV-3988] the “Z Score” value was −0.4371, the Z score [7] was −0.437 and the Activity (yes/no: significantly inhibited neurosphere proliferation in primary screen) was “no”.

`O=C(c1ccc2c(c1)OCCO2)N1CCCCC1` [CX 546] was tested, and the “Z Score” value was −1.05, the Z score [3] was −1.050 and the Activity [4] was “no”.

For `O=C(O)/C=C/c1ccc(O)c(O)c1` [Caffeic Acid], the “Z Score” value [5] was 0.3199, the Z score [3] was 0.320 and the Activity [4] was “no”.
